Assay results: US20240199542A1, “SUBSTITUTED PYRROLIDIN-2-ONES, SALTS THEREOF AND THEIR USE AS HERBICIDALLY ACTIVE SUBSTANCES” (Bayer Aktiengesellschaft, priority 2021, published 2024)

Columns and labels:
Assay type in all cases: in vivo
[1] = system: Polygonum convolvulus (POLCO); experiment: Herbicidal pre-emergence action; conditions: graded after ca. 3 weeks
Source text: (§1) Seeds of mono- and dicotyledonous weed plants and crop plants were sown, in plastic or organic planting pots, in sandy loam and covered with soil. The compounds according to the invention, formulated in the form of wettable powders (WP) or as emulsifiable concentrates (EC), were applied to the surface of the covering soil as aqueous suspension or emulsion, with the addition of 0.5% of an additive, at an application rate of 600 1 of water/ha (converted).
(§2) Following treatment, the pots were placed in a greenhouse and kept under optimum growth conditions for the test plants. The visual grading of the damage to the test plants was carried out after ca. 3 weeks in comparison to untreated controls (herbicidal effect in percent (%): 100% effect=plants have died off, 0% effect=as control plants).
(§3) Tables A1 to A16, below, show the effects of selected compounds of the general formula (I) according to table 1 on various harmful plants and an application rate corresponding to 1280 g/ha or lower obtained by the experimental procedure mentioned above.

[2] = system: Echinochloa crus-galli (ECHCG); experiment: Herbicidal post-emergence action; conditions: 1280 g/ha, assessed after ca. 3 weeks
Source text: (§4) Seeds of mono- and dicotyledonous weed plants and crop plants were sown, in plastic or organic planting pots, in sandy loam, covered with soil and grown in a greenhouse under controlled growth conditions. 2 to 3 weeks after sowing, the test plants were sprayed in the single-leaf stage. The compounds according to the invention, formulated in form of wettable powders (WP) or as emulsifiable concentrates (EC), were sprayed onto the green plant parts as aqueous suspension or emulsion, with the addition of 0.5% of an additive, at an application rate of 600 1 of water/ha (converted). The test plants were placed in the greenhouse for ca. 3 weeks under optimum growth conditions, and then the effect of the preparations was assessed visually in comparison with untreated controls (herbicidal effect in percent (%): 100% effect=plants have died off, 0% effect=as control plants).
(§5) Tables B1 to B16 below show the effects of selected compounds of the general formula (I) according to table 1 on various harmful plants and an application rate corresponding to 1280 g/ha or 320 g/ha obtained by the experimental procedure mentioned above.

[3] = system: Alopecurus myosuroides (ALOMY); experiment: Herbicidal pre-emergence action; conditions: 1280 g/ha, graded after ca. 3 weeks
Source text: as §1, §2, §3

[4] = system: Avena fatua (AVEFA); experiment: Herbicidal pre-emergence action; conditions: graded after ca. 3 weeks
Source text: as §1, §2, §3

[5] = system: Lolium multiflorum (LOLMU); experiment: Herbicidal pre-emergence action; conditions: 1280 g/ha, graded after ca. 3 weeks
Source text: as §1, §2, §3

[6] = system: Avena fatua (AVEFA); experiment: Herbicidal post-emergence action; conditions: 1280 g/ha, assessed after ca. 3 weeks
Source text: as §4, §5

[7] = system: Lolium multiflorum (LOLMU); experiment: Herbicidal post-emergence action; conditions: 1280 g/ha, assessed after ca. 3 weeks
Source text: as §4, §5

[8] = system: Echinochloa crus-galli (ECHCG); experiment: Herbicidal pre-emergence action; conditions: 1280 g/ha, graded after ca. 3 weeks
Source text: as §1, §2, §3

[9] = system: Alopecurus myosuroides (ALOMY); experiment: Herbicidal post-emergence action; conditions: 1280 g/ha, assessed after ca. 3 weeks
Source text: as §4, §5

SMILES	Post-emergence activity against ECHCG [2] [%]	Pre-emergence activity against ALOMY [3] [%]	Pre-emergence activity against AVEFA ([4]; 1280 g/ha) [%]	Post-emergence activity against AVEFA [6] [%]	other results
CNC(=O)CC1CCC(=O)N1Cc1cccc(F)c1F (racemic) [Example I-104]					Pre-emergence activity against POLCO ([1]; 1280 g/ha): 90%
CC1(C)OC(=O)C(C(=O)CC2CCC(=O)N2Cc2cccc(F)c2F)C(=O)O1 (racemic) [Example I-186]	80				Pre-emergence activity against POLCO ([1]; 1280 g/ha): 100%
CC[C@H](C)[C@H](NC(=O)CC1CCC(=O)N1Cc1cccc(F)c1F)C(=O)O (single isomer, unassigned) [Example I-011]	80	80	90	90	Pre-emergence activity against LOLMU [5]: 80%; Post-emergence activity against LOLMU [7]: 90%
COCCNC(=O)CC1CCC(=O)N1Cc1cccc(F)c1F (racemic) [Example I-091]		90			
O=C(O)CC1CCC(=O)N1Cc1c(F)ccc(F)c1F (stereo not drawn) [Example I-191, [5-Oxo-1-(2,3,6-trifluorobenzyl)pyrrolidin-2-yl]acetic acid]					Pre-emergence activity against AVEFA ([4]; 320 g/ha): 100%
O=C(CC1CCC(=O)N1Cc1cccc(F)c1F)NS(=O)(=O)C1CC1 (racemic) [Example I-086]	80				
C=CCNC(=O)CC1CCC(=O)N1Cc1cccc(F)c1F (racemic) [Example I-059]	80	80	80	80	
O=C(CC1CCC(=O)N1Cc1cccc(F)c1F)NN1CCCCC1 (racemic) [Example I-203]					Pre-emergence activity against AVEFA ([4]; 320 g/ha): 100%; Pre-emergence activity against POLCO ([1]; 320 g/ha): 80%
C#CCNC(=O)CC1CCC(=O)N1Cc1cccc(F)c1F (racemic) [Example I-092]			80		
CCn1ccc(CNC(=O)CC2CCC(=O)N2Cc2cccc(F)c2F)n1 (racemic) [Example I-085]				90	
O=C(CC1CCC(=O)N1Cc1cccc(F)c1F)NCCO (racemic) [Example I-049]		90	100		Pre-emergence activity against LOLMU [5]: 80%; Pre-emergence activity against ECHCG [8]: 80%; Pre-emergence activity against POLCO ([1]; 1280 g/ha): 90%; Post-emergence activity against ALOMY [9]: 80%
O=C(CC1CCC(=O)N1Cc1cccc(F)c1F)NCCc1ccccc1 (racemic) [Example I-061]	80	80	90	90	Post-emergence activity against ALOMY [9]: 90%
CCS(=O)(=O)NC(=O)CC1CCC(=O)N1Cc1cccc(F)c1F (racemic) [Example I-072]	80		80	80	
O=C(CC1CCC(=O)N1Cc1cccc(F)c1F)NC(Cc1c[nH]c2ccccc12)C(=O)O (mixture of isomers) [Example I-068]		80	80		
COC(=O)CN(C)C(=O)CC1CCC(=O)N1Cc1cccc(F)c1F (racemic) [Example I-053]	80	90	90	80	Post-emergence activity against ALOMY [9]: 80%
COC(=O)[C@H](Cc1c[nH]cn1)NC(=O)CC1CCC(=O)N1Cc1cccc(F)c1F (single isomer, unassigned) [Example I-050]	80				
